According to ChEMBL document CHEMBL3044631, “Synthesis of 2-[4,5-dimethyl-1-(phenylamino)-1H-imidazol-2-ylthio]-N-(thiazole-2-yl)acetamide derivatives and their anticancer activities” (2013):

What was measured:
Assay type in all cases: functional
EKVX = assay: Anticancer activity against Homo sapiens (human) EKVX cells after 48 hr by SRB assay
NCI/ADR-RES = assay: Anticancer activity against Homo sapiens (human) NCI/ADR-RES cells after 48 hr by SRB assay
U-251 = assay: Anticancer activity against Homo sapiens (human) U251 cells after 48 hr by SRB assay; conditions: U-251, 48 h
UO-31 = assay: Anticancer activity against Homo sapiens (human) UO31 cells after 48 hr by SRB assay; conditions: UO-31, 48 h
HCT-15 = assay: Anticancer activity against Homo sapiens (human) HCT15 cells after 48 hr by SRB assay; conditions: HCT-15, 48 h
SK-MEL-2 = assay: Anticancer activity against Homo sapiens (human) SK-MEL-2 cells after 48 hr by SRB assay; conditions: SK-MEL-2, 48 h
HL-60(TB) = assay: Anticancer activity against Homo sapiens (human) HL-60(TB) cells after 48 hr by SRB assay; conditions: HL-60, 48 h
SF-295 = assay: Anticancer activity against Homo sapiens (human) SF295 cells after 48 hr by SRB assay; conditions: SF-295, 48 h
SW-620 = assay: Anticancer activity against Homo sapiens (human) SW620 cells after 48 hr by SRB assay; conditions: SW-620, 48 h
SF-268 = assay: Anticancer activity against Homo sapiens (human) SF268 cells after 48 hr by SRB assay; conditions: SF-268, 48 h
COLO 205 = assay: Anticancer activity against Homo sapiens (human) COLO205 cells after 48 hr by SRB assay; conditions: COLO 205, 48 h
HT-29 = assay: Anticancer activity against Homo sapiens (human) HT-29 cells after 48 hr by SRB assay; conditions: HT-29, 48 h
Malme-3M = assay: Anticancer activity against Homo sapiens (human) MALME-3M cells after 48 hr by SRB assay
NCI-H322M = assay: Anticancer activity against Homo sapiens (human) NCI-H322M cells after 48 hr by SRB assay
T47D = assay: Anticancer activity against Homo sapiens (human) T47D cells after 48 hr by SRB assay
SF-539 = assay: Anticancer activity against Homo sapiens (human) SF539 cells after 48 hr by SRB assay; conditions: SF-539, 48 h
NCI-H460 = assay: Anticancer activity against Homo sapiens (human) NCI-H460 cells after 48 hr by SRB assay; conditions: NCI-H460, 48 h
Hs-578T = assay: Anticancer activity against Homo sapiens (human) Hs 578T cells after 48 hr by SRB assay
OVCAR-4 = assay: Anticancer activity against Homo sapiens (human) OVCAR4 cells after 48 hr by SRB assay; conditions: OVCAR-4, 48 h
SK-MEL-5 = assay: Anticancer activity against Homo sapiens (human) SK-MEL-5 cells after 48 hr by SRB assay; conditions: SK-MEL-5, 48 h
SNB-75 = assay: Anticancer activity against Homo sapiens (human) SNB75 cells after 48 hr by SRB assay; conditions: SNB-75, 48 h
A549 = assay: Anticancer activity against Homo sapiens (human) A549/ATCC cells after 48 hr by SRB assay; conditions: A549, 48 h
OVCAR-8 = assay: Anticancer activity against Homo sapiens (human) OVCAR8 cells after 48 hr by SRB assay; conditions: OVCAR-8, 48 h
OVCAR-3 = assay: Anticancer activity against Homo sapiens (human) OVCAR3 cells after 48 hr by SRB assay; conditions: OVCAR-3, 48 h
NCI-H23 = assay: Anticancer activity against Homo sapiens (human) NCI-H23 cells after 48 hr by SRB assay; conditions: NCI-H23, 48 h
SN12C = assay: Anticancer activity against Homo sapiens (human) SN12C cells after 48 hr by SRB assay
MOLT-4 = assay: Anticancer activity against Homo sapiens (human) MOLT4 cells after 48 hr by SRB assay; conditions: MOLT-4, 48 h
K562 = assay: Anticancer activity against Homo sapiens (human) K562 cells after 48 hr by SRB assay; conditions: K562, 48 h
DU-145 = assay: Anticancer activity against Homo sapiens (human) DU145 cells after 48 hr by SRB assay; conditions: DU-145, 48 h
MDA-MB-468 = assay: Anticancer activity against Homo sapiens (human) MDA-MB-468 cells after 48 hr by SRB assay; conditions: MDA-MB-468, 48 h
[1] = read-out: LC50 (the source's name)

COc1ccc(Nn2c(SCC(=O)Nc3nc(-c4ccc(Cl)cc4)cs3)nc(C)c2C)cc1
GI50 (EKVX): 1.92 µM | TGI (EKVX): > 100 µM | CC50 (EKVX; [1]): > 100 µM | GI50 (NCI/ADR-RES): 2.89 µM | LC50 (NCI/ADR-RES): > 100 µM | TGI (NCI/ADR-RES): > 100 µM | GI50 (U-251): 4.03 µM | LC50 (lethal concentration, 50% net cell kill) (U-251): > 100 µM | TGI (U-251): > 100 µM | GI50 (UO-31): 2.62 µM | TGI (UO-31): > 100 µM | CC50 (UO-31; [1]): > 100 µM | GI50 (HCT-15): 4.79 µM | TGI (HCT-15): > 100 µM | CC50 (HCT-15; [1]): > 100 µM | GI50 (SK-MEL-2): 15.7 µM | LC50 (concentration killing 50% of cells) (SK-MEL-2): > 100 µM | TGI (SK-MEL-2): 66.8 µM | GI50 (HL-60(TB)): > 100 µM | TGI (HL-60(TB)): 59.1 µM | CC50 (HL-60(TB); [1]): > 100 µM | GI50 (SF-295): 2.18 µM | LC50 (SF-295): > 100 µM | TGI (SF-295): > 100 µM | GI50 (SW-620): 4.78 µM | LC50 (concentration killing 50% of cells) (SW-620): > 100 µM | TGI (SW-620): > 100 µM | GI50 (SF-268): 2.81 µM | LC50 (SF-268): > 100 µM | TGI (SF-268): > 100 µM | GI50 (COLO 205): 1.94 µM | TGI (COLO 205): 3.55 µM | CC50 (COLO 205; [1]): 6.51 µM | GI50 (HT-29): 4.61 µM | LC50 (HT-29): > 100 µM | TGI (HT-29): 50.4 µM | GI50 (Malme-3M): 2.9 µM | TGI (Malme-3M): > 100 µM | CC50 (Malme-3M; [1]): > 100 µM | GI50 (NCI-H322M): > 100 µM | TGI (NCI-H322M): > 100 µM | CC50 (NCI-H322M; [1]): > 100 µM | GI50 (T47D): 1.23 µM | TGI (T47D): 8.04 µM | CC50 (T47D; [1]): > 100 µM | GI50 (SF-539): 4.15 µM | LC50 (concentration killing 50% of cells) (SF-539): > 100 µM | TGI (SF-539): > 100 µM | GI50 (NCI-H460): 2.69 µM | LC50 (NCI-H460): > 100 µM | TGI (NCI-H460): 10.6 µM | GI50 (Hs-578T): 11.8 µM | TGI (Hs-578T): > 100 µM | CC50 (Hs-578T; [1]): > 100 µM | GI50 (OVCAR-4): 4.02 µM | LC50 (concentration killing 50% of starting cells) (OVCAR-4): > 100 µM | TGI (OVCAR-4): > 100 µM | GI50 (SK-MEL-5): 1.41 µM | LC50 (concentration killing 50% of cells) (SK-MEL-5): 7.96 µM | TGI (SK-MEL-5): 3.35 µM | GI50 (SNB-75): 4.8 µM | LC50 (SNB-75): > 100 µM | TGI (SNB-75): > 100 µM | GI50 (A549): 3.32 µM | LC50 (A549): > 100 µM | TGI (A549): > 100 µM | GI50 (OVCAR-8): 4.82 µM | TGI (OVCAR-8): > 100 µM | CC50 (OVCAR-8; [1]): > 100 µM | GI50 (OVCAR-3): 3.13 µM | LC50 (50% lethal concentration) (OVCAR-3): > 100 µM | TGI (OVCAR-3): 24.2 µM | GI50 (NCI-H23): 1.53 µM | TGI (NCI-H23): > 100 µM | CC50 (NCI-H23; [1]): > 100 µM | GI50 (SN12C): 2.3 µM | LC50 (concentration killing 50% of cells) (SN12C): > 100 µM | TGI (SN12C): 7.52 µM | GI50 (MOLT-4): 2.54 µM | LC50 (50% lethal concentration) (MOLT-4): > 100 µM | TGI (MOLT-4): > 100 µM | GI50 (K562): 1.58 µM | TGI (K562): > 100 µM | CC50 (K562; [1]): > 100 µM | GI50 (DU-145): 4.06 µM | LC50 (concentration killing 50% of cells) (DU-145): > 100 µM | TGI (DU-145): > 100 µM | GI50 (MDA-MB-468): 0.57 µM | LC50 (MDA-MB-468): > 100 µM | TGI (MDA-MB-468): 7.73 µM
